Read-outs that look alike come from different tables or passages of the source.
Protocol: To assay transdermal flux of levonorgestrel and ethinyl estradiol across the skin barrier, traditional Franz diffusion cells were used. Human cadaver skin epidermis was used as the substrate throughout all flux experiments to mimic in vivo conditions.
Prior to beginning the diffusion experiment, human cadaver epidermis was separated from underlying dermal tissue by floating the skin sample on 60° C. water for 2 minutes, followed by gently pealing the epidermis away from the dermal tissue with a spatula. The resulting epidermal tissue is then cut into squares having an approximate size of 2 cm×2 cm. Patch samples were then prepared by die-cutting the patches with a ⅝″ punch and arbor press. The release liner of the punched sample was then removed and the patch sample was placed on top of the epidermis with the drug adhesive layer contacting the stratum corneum. Gentle pressure was applied to the patch sample to achieve good contact between the adhesive layer and the stratum corneum.
Franz diffusion cells were assembled by placing the epidermis-patch samples between the receptor and donor chambers of the diffusion cell and clamping the chambers together with a pinch clamp. The receptor chamber was filled with phosphate buffered saline solution at pH 7.4 with 0.2% (w/w) NaN3 added as a preservative and 2% (w/w) beta-hydroxypropylcylclodextrin added to ensure sink conditions of the receptor fluid throughout the experiment. In addition, a stir bar was added to each receptor chamber. Care was taken to ensure any air bubbles underneath the skin were removed prior to beginning the flux study. The assembled diffusion cells were then placed in a stirring dry bath heater. The receptor chambers were continually stirred throughout the experiment and the temperature maintained at 32° C. Samples were taken at regular intervals over a period seven of days with fresh receptor solution being used to replace the removed sample aliquot. Sample aliquots were analyzed via high performance liquid chromatography (HPLC) with a gradient method using water (with 0.01% (w/w) formic acid) and acetonitrile (with 0.006% (w/w) formic acid) as the mobile phases, an Eclipse Plus C8 column, and ultraviolet (UV) detection at 220 nm. Flux values were calculated from the slopes of cumulative amounts of the drug in the receptor compartment versus time.
Transdermal delivery systems for administration of levonorgesterel and ethinyl estradiol were prepared and tested as described in Example 1, except that the adhesive polymer matrix contained levulinic acid and/or glyceryl monooleate.
Transdermal delivery systems for administration of levonorgesterel and ethinyl estradiol were prepared and tested as described in Example 1, except that the adhesive polymer matrix contained levulinic acid and/or glyceryl monooleate, and pharmaceutical grade PVP/VA S-630 (sold under the tradename Plasdone S-630 by International Specialty Products located at Wayne, N.J.) was used.
Transdermal flux assays measuring the flux of levonorgestrel were performed as described in Example 1.

**Q.** Which “flux of ethinyl estradiol, result in words” value (Example 1, Formulations A-I) does the source give for CCCCCCCC/C=C\CCCCCCCC(=O)OCC(O)CO (stereo not shown) [glyceryl monooleate] here?
**A.** increase the flux of ethinyl estradiol relative to control Formulation A

**Q.** What about the “flux of levonorgestrel, result in words” value (Example 1, Formulations A-I) of the same molecule?
**A.** increase the flux of levonorgestrel relative to control Formulation A

**Q.** And the “flux of levonorgestrel, result in words” value (Example 1, Formulations A-I, listed as Glyceryl monooleate)?
**A.** larger increase in the flux of levonorgestrel than levulinic acid

**Q.** Which results are given for CCCCCCCCCCCCCC(=O)OC(C)C [isopropyl myristate]?
**A.** flux of ethinyl estradiol, result in words: increase the flux of ethinyl estradiol relative to control Formulation A; flux of levonorgestrel, result in words: increase the flux of levonorgestrel relative to control Formulation A

**Q.** With CCCCCCCCCCCCOC(=O)C(C)O (stereo not shown) [lauryl lactate] as the molecule, how does the “flux of levonorgestrel, result in words” value read?
**A.** increase the flux of levonorgestrel relative to control Formulation T

**Q.** Which “flux of ethinyl estradiol, result in words” value does the source give for CC(=O)CCC(=O)O [levulinic acid] here?
**A.** increase the flux of ethinyl estradiol relative to control Formulation A

From patent US9579296B2, “Compositions and methods for transdermal delivery of hormones and other medicinal agents” (Teikoku Pharma USA, Inc., priority 2012, dated 2017)
